{"source": "patent US20020165233A1", "about": "“Quinoxaline containing medicaments for post exposure prophylaxis of an HIV infection” (priority 1999, published 2002)", "key": {"RT-SHIV [1]": {"tested_on": "RT-SHIV", "experiment": "Quantitative virus isolation (QVI) from PBMC co-cultured with C8166 and viral RNA PCR of culture supernatant", "assay_type": "in vivo, rhesus monkeys", "design": "key to viral RNA PCR of QVI culture supernatant: +=positive; −=negative", "method": "(§1) Nine rhesus monkeys (male, 2 years old, 2-3 kg) were seronegative for SIV, Simian T cell Leukemia Virus (STLV), B virus and Type D retroviruses. 15 mg/kg body weight of COMPOUND A was subcutaneously administered into animals twice a day (12 h interval) for 28 d. Animals were divided into three groups. All animals were intravenously administered with 100 TCID50 of RT-SHIV The first group consisted of three animals treated with COMPOUND A from 8 h post exposure for 28 d. The second group of animals was treated with COMPOUND A from 24 h post exposure for 28 d. The third group (control) received the solvent that was used to dissolve COMPOUND A (PEG400:glycerol:water=[…]) from 8 h post exposure for 28 d.\n(§2) Blood was collected from all the animals either just before or 2 h after the drug administration on 0, 3, 7, 10, 14, 21, 29 d post exposure in order to check the drug concentration, otherwise in intervals of 2 to 8 weeks. Biopsy of inguinal lymph nodes was conducted on 17 d or 18 d and 8 weeks post exposure in two animals per group. Cerebrospinal fluid (CSF) was collected from the animals just before biopsy.\nViral RNA was detected from 7 or 10 d post exposure up to 40 weeks post exposure in all plasma specimen from two animals (FIG. 2). […] While in two animals plasma viral RNA levels persisted around 10^5 copy/ml after a moderate reduction occurred at 4 weeks post exposure, viral RNA levels in one animal declined to about 10^3 copy/ml after 15 weeks post exposure (FIG. 2). The RT-SHIV infection in PIBMC was monitored by quantitative virus isolation (QVI) and quantitative PCR assay of proviral DNA. Serially diluted PBMC were co-cultured with C8166 to determine the minimal PBMC cell number to provoke a productive infection of C8166 cells. The number from the QVI test indicates infectious cells per one million PBMC. QVI results were consistent with plasma viral RNA levels. The numbers indicates the results of QVI. A + or − on the right indicates results of viral RNA PCR assay for the detection of virus in culture supernatant. +=positive, −=negative."}, "RT-SHIV [2]": {"tested_on": "RT-SHIV", "experiment": "Cytotoxic lymphocytes (CTL) assay against env and gag-pol", "assay_type": "in vivo, rhesus monkeys", "conditions": "treated animals; all time points tested (3 w to 40 w post exposure)"}, "[3]": {"design": "species or system rhesus monkeys", "conditions": "rhesus monkey, in vivo, sc, 15 mg/kg", "method": "as §1, §2\nDetermination of COMPOUND A Concentration in Plasma and CSF:\nBlood was collected from all animals just before or 2 h after drug administration to check trough (lowest) or highest blood concentration of the drug. COMPOUND A concentration in CSF was determined by HPLC."}, "RT-SHIV [4]": {"tested_on": "RT-SHIV", "experiment": "Plasma viral load (quantitative RNA PCR) after post-exposure prophylaxis", "assay_type": "in vivo, rhesus monkeys", "method": "as §1, §2\nDetermination of Plasma Viral Load:\nViral RNA was purified from plasma with a commercial viral RNA isolation kit (Boehringer Mannheim). Gag cDNA was PCR amplified with a commercial RNA PCR kit (Boehringer Mannheim) with the gag primers SG05i (5′-ACTGCTGATTCAAAATGCiMCC-3′), SG06i (5′-CTACTGGTCTiCTCCAAAGAGAGAATTG-3′) according to the protocol by Piatak et al. (Biotechniques 14, 70-81-1993) with modifications. Amplified gag DNA was separated by 2% agarose electrophoresis and cyber green stained DNA was analyzed with a fluorescence image analyzer (FLA2000, Fuji Photo Film). Quantitative determination of the viral RNA copy number was calculated using external standards."}, "[5]": {"conditions": "animal #1, 15 mg/kg s.c. b.i.d. 8h thru 28 d post exp, week 6 post exp."}, "[6]": {"conditions": "animal #1, 15 mg/kg s.c. b.i.d. 8h thru 28 d post exp, week 8 post exp."}, "[7]": {"conditions": "animal #1, 15 mg/kg s.c. b.i.d. 8h thru 28 d post exp, week 11 post exp."}, "[8]": {"conditions": "animal #3, 15 mg/kg s.c. b.i.d. 24h thru 28 d post exp., week 6 post exp."}, "[9]": {"conditions": "animal #3, 15 mg/kg s.c. b.i.d. 24h thru 28 d post exp., week 8 post exp."}, "[10]": {"conditions": "animal #3, 15 mg/kg s.c. b.i.d. 24h thru 28 d post exp., week 11 post exp."}, "[11]": {"conditions": "animal #4, 15 mg/kg s.c. b.i.d. 24h thru 28 d post exp., week 8 post exp."}, "[12]": {"conditions": "animal #10, 15 mg/kg s.c. b.i.d. 8h thru 28 d post exp, week 6 post exp."}, "[13]": {"conditions": "animal #10, 15 mg/kg s.c. b.i.d. 8h thru 28 d post exp, week 8 post exp."}, "[14]": {"conditions": "animal #10, 15 mg/kg s.c. b.i.d. 8h thru 28 d post exp, week 11 post exp."}, "[15]": {"conditions": "animal #11, 15 mg/kg s.c. b.i.d. 24h thru 28 d post exp., week 8 post exp."}, "[16]": {"conditions": "animal #11, 15 mg/kg s.c. b.i.d. 24h thru 28 d post exp., week 11 post exp."}}}
{"smiles": "CC[C@H]1C(=O)Nc2ccc(F)cc2N1C(=O)OC(C)C", "note": "[Compound A, (3S)-ethyl-6-fluoro-4-isopropyloxycarbonyl-3,4-dihydroquinoxalin-2(1H)-one]", "values": [{"measurement": "viral RNA PCR of QVI culture supernatant", "setting": "RT-SHIV [1]; animal #1, 15 mg/kg s.c. b.i.d. 8h thru 28 d post exp, week 2 post exp.", "value": "−/−"}, {"measurement": "Quantitative virus isolation (QVI)", "setting": "RT-SHIV [1]; [5]", "value": "4 infectious cells per one million PBMC"}, {"measurement": "viral RNA PCR of QVI culture supernatant", "setting": "RT-SHIV [1]; [5]", "value": "+"}, {"measurement": "Quantitative virus isolation (QVI)", "setting": "RT-SHIV [1]; [6]", "value": "16 infectious cells per one million PBMC"}, {"measurement": "viral RNA PCR of QVI culture supernatant", "setting": "RT-SHIV [1]; [6]", "value": "+"}, {"measurement": "Quantitative virus isolation (QVI)", "setting": "RT-SHIV [1]; [7]", "value": "4 infectious cells per one million PBMC"}, {"measurement": "viral RNA PCR of QVI culture supernatant", "setting": "RT-SHIV [1]; [7]", "value": "+"}, {"measurement": "viral RNA PCR of QVI culture supernatant", "setting": "RT-SHIV [1]; animal #1, 15 mg/kg s.c. b.i.d. 8h thru 28 d post exp, week 15 post exp.", "value": "−/−"}, {"measurement": "viral RNA PCR of QVI culture supernatant", "setting": "RT-SHIV [1]; animal #3, 15 mg/kg s.c. b.i.d. 24h thru 28 d post exp., week 2 post exp.", "value": "−/−"}, {"measurement": "Quantitative virus isolation (QVI)", "setting": "RT-SHIV [1]; [8]", "value": "16 infectious cells per one million PBMC"}, {"measurement": "viral RNA PCR of QVI culture supernatant", "setting": "RT-SHIV [1]; [8]", "value": "+"}, {"measurement": "Quantitative virus isolation (QVI)", "setting": "RT-SHIV [1]; [9]", "value": "16 infectious cells per one million PBMC"}, {"measurement": "viral RNA PCR of QVI culture supernatant", "setting": "RT-SHIV [1]; [9]", "value": "+"}, {"measurement": "Quantitative virus isolation (QVI)", "setting": "RT-SHIV [1]; [10]", "value": "16 infectious cells per one million PBMC"}, {"measurement": "viral RNA PCR of QVI culture supernatant", "setting": "RT-SHIV [1]; [10]", "value": "+"}, {"measurement": "viral RNA PCR of QVI culture supernatant", "setting": "RT-SHIV [1]; animal #3, 15 mg/kg s.c. b.i.d. 24h thru 28 d post exp., week 15 post exp.", "value": "−/−"}, {"measurement": "viral RNA PCR of QVI culture supernatant", "setting": "RT-SHIV [1]; animal #4, 15 mg/kg s.c. b.i.d. 24h thru 28 d post exp., week 2 post exp.", "value": "−/−"}, {"measurement": "viral RNA PCR of QVI culture supernatant", "setting": "RT-SHIV [1]; animal #4, 15 mg/kg s.c. b.i.d. 24h thru 28 d post exp., week 6 post exp.", "value": "−/−"}, {"measurement": "Quantitative virus isolation (QVI)", "setting": "RT-SHIV [1]; [11]", "value": "1 infectious cells per one million PBMC"}, {"measurement": "viral RNA PCR of QVI culture supernatant", "setting": "RT-SHIV [1]; [11]", "value": "+"}, {"measurement": "viral RNA PCR of QVI culture supernatant", "setting": "RT-SHIV [1]; animal #4, 15 mg/kg s.c. b.i.d. 24h thru 28 d post exp., week 11 post exp.", "value": "−/−"}, {"measurement": "viral RNA PCR of QVI culture supernatant", "setting": "RT-SHIV [1]; animal #4, 15 mg/kg s.c. b.i.d. 24h thru 28 d post exp., week 15 post exp.", "value": "−/−"}, {"measurement": "viral RNA PCR of QVI culture supernatant", "setting": "RT-SHIV [1]; animal #5, 15 mg/kg s.c. b.i.d. 8h thru 28 d post exp, week 2 post exp.", "value": "−/−"}, {"measurement": "viral RNA PCR of QVI culture supernatant", "setting": "RT-SHIV [1]; animal #5, 15 mg/kg s.c. b.i.d. 8h thru 28 d post exp, week 6 post exp.", "value": "−/−"}, {"measurement": "viral RNA PCR of QVI culture supernatant", "setting": "RT-SHIV [1]; animal #5, 15 mg/kg s.c. b.i.d. 8h thru 28 d post exp, week 8 post exp.", "value": "−/−"}, {"measurement": "viral RNA PCR of QVI culture supernatant", "setting": "RT-SHIV [1]; animal #5, 15 mg/kg s.c. b.i.d. 8h thru 28 d post exp, week 11 post exp.", "value": "−/−"}, {"measurement": "viral RNA PCR of QVI culture supernatant", "setting": "RT-SHIV [1]; animal #5, 15 mg/kg s.c. b.i.d. 8h thru 28 d post exp, week 15 post exp.", "value": "−/−"}, {"measurement": "viral RNA PCR of QVI culture supernatant", "setting": "RT-SHIV [1]; animal #10, 15 mg/kg s.c. b.i.d. 8h thru 28 d post exp, week 2 post exp.", "value": "−/−"}, {"measurement": "Quantitative virus isolation (QVI)", "setting": "RT-SHIV [1]; [12]", "value": "1 infectious cells per one million PBMC"}, {"measurement": "viral RNA PCR of QVI culture supernatant", "setting": "RT-SHIV [1]; [12]", "value": "+"}, {"measurement": "Quantitative virus isolation (QVI)", "setting": "RT-SHIV [1]; [13]", "value": "16 infectious cells per one million PBMC"}, {"measurement": "viral RNA PCR of QVI culture supernatant", "setting": "RT-SHIV [1]; [13]", "value": "+"}, {"measurement": "Quantitative virus isolation (QVI)", "setting": "RT-SHIV [1]; [14]", "value": "4 infectious cells per one million PBMC"}, {"measurement": "viral RNA PCR of QVI culture supernatant", "setting": "RT-SHIV [1]; [14]", "value": "+"}, {"measurement": "viral RNA PCR of QVI culture supernatant", "setting": "RT-SHIV [1]; animal #10, 15 mg/kg s.c. b.i.d. 8h thru 28 d post exp, week 15 post exp.", "value": "−/−"}, {"measurement": "viral RNA PCR of QVI culture supernatant", "setting": "RT-SHIV [1]; animal #11, 15 mg/kg s.c. b.i.d. 24h thru 28 d post exp., week 2 post exp.", "value": "−/−"}, {"measurement": "viral RNA PCR of QVI culture supernatant", "setting": "RT-SHIV [1]; animal #11, 15 mg/kg s.c. b.i.d. 24h thru 28 d post exp., week 6 post exp.", "value": "−/−"}, {"measurement": "Quantitative virus isolation (QVI)", "setting": "RT-SHIV [1]; [15]", "value": "4 infectious cells per one million PBMC"}, {"measurement": "viral RNA PCR of QVI culture supernatant", "setting": "RT-SHIV [1]; [15]", "value": "+"}, {"measurement": "Quantitative virus isolation (QVI)", "setting": "RT-SHIV [1]; [16]", "value": "4 infectious cells per one million PBMC"}, {"measurement": "viral RNA PCR of QVI culture supernatant", "setting": "RT-SHIV [1]; [16]", "value": "+"}, {"measurement": "viral RNA PCR of QVI culture supernatant", "setting": "RT-SHIV [1]; animal #11, 15 mg/kg s.c. b.i.d. 24h thru 28 d post exp., week 15 post exp.", "value": "−/−"}, {"measurement": "CTL activity against env and gag-pol", "setting": "RT-SHIV [2]", "value": "constant high CTL activity"}, {"measurement": "concentration in cerebral spinal fluid (CSF) relative to blood", "setting": "[3]", "value": "approximately one tenth"}, {"measurement": "minimum level of the drug", "setting": "[3]", "value": "higher than the effective minimal concentration"}, {"measurement": "trough concentration relative to the IC90 value", "setting": "[3]", "value": 3, "unit": "fold"}, {"measurement": "animals with a short active viral replication", "setting": "RT-SHIV [4]; 4 weeks after cessation of treatment", "value": "50 % of the animals"}, {"measurement": "viral replication (plasma viral RNA, proviral DNA, infectious cells in PBMC)", "setting": "RT-SHIV [4]; during the treatment and the following 3 weeks, all treated animals", "value": "inhibited at a level below the sensitivity of the assays"}, {"measurement": "viral infection in animal #5", "setting": "RT-SHIV [4]; plasma viral RNA, proviral DNA and QVI methods", "value": "no viral infection was observed"}, {"measurement": "duration of immune-system assisted control following exposure", "setting": "RT-SHIV [4]; rhesus macaques", "value": "at least 40 weeks"}, {"measurement": "viral replication (plasma viral RNA level)", "setting": "RT-SHIV [4]; subsequent to active replication around 10 weeks, up to 40 weeks post exposure, RNA PCR detection level", "value": "≤ 1000", "unit": "copy/ml"}]}
